{"source": "paper PMC11742003", "about": "“Co-expression of the RPS6KB1 and PDPK1 genes for production of activated p70S6K1 using bac-to-bac baculovirus expression system” (Molecular Biology Reports, 2025)", "target": "T1, p70S6K1 (His-actS6K1; Ribosomal protein S6 kinase 1) (Homo sapiens, UniProt P23443, T412D)", "T1 construct": "gene RPS6KB1; 6xHis-tagged S6K1 residues 3-398 (ΔAID), phosphorylated at T229 by co-expressed PDPK1(ΔPH)", "T1 sequence (P23443 26-421 T412D)": "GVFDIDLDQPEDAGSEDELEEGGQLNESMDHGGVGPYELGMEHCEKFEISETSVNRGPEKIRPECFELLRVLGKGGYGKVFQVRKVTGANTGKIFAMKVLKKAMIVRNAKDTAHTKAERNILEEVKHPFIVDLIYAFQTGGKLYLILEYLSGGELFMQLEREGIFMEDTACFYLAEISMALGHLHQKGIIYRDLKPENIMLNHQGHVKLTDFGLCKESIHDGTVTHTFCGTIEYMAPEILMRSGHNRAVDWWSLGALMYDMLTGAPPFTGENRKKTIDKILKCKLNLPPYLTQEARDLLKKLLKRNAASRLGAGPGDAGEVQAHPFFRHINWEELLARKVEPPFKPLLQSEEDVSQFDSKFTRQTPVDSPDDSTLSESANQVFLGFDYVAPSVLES", "test": "AlphaScreen kinase assay with biotinylated rpS6 peptide, […] ATP, purified enzyme", "type": "biochemical", "data": [{"smiles": "Cn1cc(-c2ccc(F)c(C(F)(F)F)c2)nc1C1CCN(c2ncnc3[nH]ncc23)CC1", "note": "[LY2584702]", "values": [{"measurement": "IC50", "result": 4.2, "unit": "nM"}]}]}
